Measurements published in patent US12728186B2, “Methods and kits for preparing pathogen-inactivated whole blood” (priority 2018, dated 2026).
Several values for one entry are separate records, joined by “and”; a condition that tells them apart may be missing. Equal entries are not always repeated.

Legend:
Assay type in all cases: physicochemical
[1] = Residual unreacted amustaline by LCMS, Example 6 (treatment in blood collection bags); details: for Residual amustaline levels in pathogen-inactivated whole blood, 20 hr / Residual amustaline levels in pathogen-inactivated whole blood, 22 hr / Residual amustaline levels in pathogen-inactivated whole blood, 24 hr: 22° C.
Protocol: More specifically, whole blood units were collected from donors and treated in either Teruflex (Terumo, BB*AGD506A2) blood collection bags (Units 2-7) or Leucoflex (MacoPharma, LQE7230LD) blood collection bags (Units 9-14) containing anticoagulant and integrated into a kit of the present disclosure. Six ABO-matched whole blood units were pooled and split into a control unit and six test units of ~450 mL each. Control units 1 and 8 used kits described in previous Examples. A filter set as previously described was sterile docked to the whole blood transfer tubing of the container that had been sealed and severed, followed by addition of amustaline and GSH to final concentrations of about 0.2 mM and 2.0 mM, respectively. GSH was added first, followed by addition of amustaline within 30 minutes. The mixtures were then incubated at 22° C. for 20 hr, with samples taken for analysis and transfer of the mixtures to the second integrally connected container for test Units 2-7 and 9-14, followed by further incubation and sampling at 2 hr intervals (i.e., 22 hr, 24 hr) for all Units as shown in Table 7.

[2] = Residual unreacted amustaline by LCMS, Example 3 (1-container vs 3-container kits, PVC1/PVC2/EVA bags)
Protocol: In another study, pathogen-inactivated whole blood was prepared using amustaline and GSH, in 1-container or 3-container kits of the present disclosure, with the 3-container kits comprising second and third bags (e.g., transfer/storage containers) from three different sources (e.g., different plastics materials). The three different transfer/storage containers included a 600 mL container, comprising Transfufol 3226 PVC film (“PVC1”), a second 600 mL container from a different manufacturer comprising Transfufol 3226 PVC film (“PVC2”), and a 750 mL container from Cerus, comprising EVA (ethylene-vinyl acetate) 1800 film (“EVA”). Six ABO-matched whole blood units in anticoagulant were pooled and split into seven units of ~450 mL each. The seven whole blood units were subjected to pathogen inactivation under conditions of no transfer step between containers (e.g., processing performed in the 1-container kit), or two transfer steps between containers (e.g., processing performed in the 3-container kits) of the indicated storage/transfer bag source (Table 4). Amustaline and GSH were added to the whole blood units as described previously by sterile docking of a filter set to the tubing of an input port of the first containers, which contained the whole blood. Unit 1 was treated with amustaline and GSH at 0.2 mM and 2.0 mM final concentrations, respectively, in the first container and incubated at 22° C., with samples taken at 18, 20, 22 and 24 hours, with no container transfers. For units 2-7, amustaline and GSH were added to the whole blood (0.2 mM and 2.0 mM final concentrations, respectively) in the first container, followed by transfer to the second container and incubation at 22° C. for 18 hours. At 18 hours, samples were taken along with transfer of the mixture to the third container and further incubation at 22° C., with additional sampling at 2 hour intervals (20, 22 and 24 hr).
All samples were analyzed by LCMS to determine the level of residual, unreacted amustaline as previously described. […] Following a second transfer (i.e., to third container) at 18 hr and further incubation at 22° C., residual amustaline was less than 1 nM at the 20 hr time point (i.e., 2 hours after bag transfer) for kits with two different container types and approaching 1 nM for kits with the third container type.

[3] = Residual unreacted amustaline by LCMS, Example 5 (2-container kits, transfer at 18, 20 or 22 hr); details: Units 15-21, 2-container kit, transfer time 22 hr, 22° C.
Protocol: A further study was performed to evaluate additional conditions for the preparation of pathogen-inactivated whole blood using amustaline and GSH in 2-container kits of the present disclosure (e.g., FIG. 3b). Amustaline and GSH were added to the whole blood units at 0.2 mM and 2.0 mM final concentrations, respectively, in the first container. […] Following transfer to the second container the mixtures were further incubated at 22° C., with sampling for analysis at 2 hr intervals as shown in Table 6.
Samples were analyzed by LCMS to determine the level of residual, unreacted amustaline as previously described.

[4] = Unit 1, control unit (kit of previous Examples, not transferred), collection bag T
[5] = Unit 8, control unit (kit of previous Examples, not transferred), collection bag M
[6] = Units 2-7, treated in Teruflex (T) blood collection bag, to second container at 20 hr
[7] = Units 9-14, treated in Leucoflex (M) blood collection bag, to second container at 20 hr

SMILES: O=C(CCNc1c2ccccc2nc2ccccc12)OCCN(CCCl)CCCl [amustaline]
- Residual amustaline levels in pathogen-inactivated whole blood, 20 hr ([1]; 20 hr (at transfer), Units 2-7, treated in Teruflex (T) blood collection bag, to second container at 20 hr): 2.12e-09 M and 2.32e-09 M and 1.29e-09 M and 1.62e-09 M and 1.53e-09 M and 1.92e-09 M
- Residual amustaline levels in pathogen-inactivated whole blood, 20 hr ([1]; 20 hr (at transfer), Units 9-14, treated in Leucoflex (M) blood collection bag, to second container at 20 hr): 1.36e-09 M and 1.32e-09 M and 1.44e-09 M and 1.34e-09 M and 1.49e-09 M and 1.4e-09 M
- Residual amustaline levels in pathogen-inactivated whole blood, 20 hr ([1]; 20 hr, Unit 1, control unit (kit of previous Examples, not transferred), collection bag T): 2.35e-09 M
- Residual amustaline levels in pathogen-inactivated whole blood, 20 hr ([1]; 20 hr, Unit 8, control unit (kit of previous Examples, not transferred), collection bag M): 2.62e-09 M
- Residual amustaline levels in pathogen-inactivated whole blood, 22 hr [1, 4]: 1.61 nM
- Residual amustaline levels in pathogen-inactivated whole blood, 22 hr [1, 5]: 1.93 nM
- Residual amustaline levels in pathogen-inactivated whole blood, 22 hr [1, 6]: BLOQ (BLOQ = Below Limit of Quantitation (e.g., < 0.75 nM))
- Residual amustaline levels in pathogen-inactivated whole blood, 22 hr [1, 7]: BLOQ (BLOQ = Below Limit of Quantitation (e.g., < 0.75 nM))
- Residual amustaline levels in pathogen-inactivated whole blood, 24 hr [1, 4]: 1.81 nM
- Residual amustaline levels in pathogen-inactivated whole blood, 24 hr [1, 5]: 1.85 nM
- Residual amustaline levels in pathogen-inactivated whole blood, 24 hr [1, 6]: BLOQ (BLOQ = Below Limit of Quantitation (e.g., < 0.75 nM))
- Residual amustaline levels in pathogen-inactivated whole blood, 24 hr [1, 7]: BLOQ (BLOQ = Below Limit of Quantitation (e.g., < 0.75 nM))
- Residual amustaline levels, Units transferred to the second bag at 20 hr ([1]; Units treated in blood collection bags and transferred to the second bag at 20 hr): below the limit of quantitation
- Residual amustaline levels in pathogen-inactivated whole blood, 18 hr ([2]; 18 hr (at transfer to third container), Units 2-3, 3 bag kit, 2x transfer, PVC1 transfer bags, 22° C.): 1.75 nM and 1.52 nM
- Residual amustaline levels in pathogen-inactivated whole blood, 18 hr ([2]; 18 hr (at transfer to third container), Units 4-5, 3 bag kit, 2x transfer, PVC2 transfer bags, 22° C.): 1.45 nM and 1.48 nM
- Residual amustaline levels in pathogen-inactivated whole blood, 18 hr ([2]; 18 hr (at transfer to third container), Units 6-7, 3 bag kit, 2x transfer, EVA transfer bags, 22° C.): 3.11 nM and 3.51 nM
- Residual amustaline levels in pathogen-inactivated whole blood, 18 hr ([2]; 18 hr, Unit 1, 1 bag kit, no transfer, 22° C.): 2.16 nM
- residual amustaline at the 20 hr time point, kits with the third container type ([2]; 20 hr (2 hours after bag transfer at 18 hr), 3-container kits, third container type, 22° C.): ~1 nM
- residual amustaline at the 20 hr time point, kits with two container types ([2]; 20 hr (2 hours after bag transfer at 18 hr), 3-container kits, two different container types, 22° C.): less than 1 nM
- Residual amustaline levels in pathogen-inactivated whole blood, 20 hr ([2]; 20 hr (third container from 18 hr), Units 2-3, 3 bag kit, 2x transfer, PVC1 transfer bags, 22° C.): 0.88 nM and 0.78 nM
- Residual amustaline levels in pathogen-inactivated whole blood, 20 hr ([2]; 20 hr (third container from 18 hr), Units 4-5, 3 bag kit, 2x transfer, PVC2 transfer bags, 22° C.): 0.85 nM and 0.87 nM
- Residual amustaline levels in pathogen-inactivated whole blood, 20 hr ([2]; 20 hr (third container from 18 hr), Units 6-7, 3 bag kit, 2x transfer, EVA transfer bags, 22° C.): 1.14 nM and 1.22 nM
- Residual amustaline levels in pathogen-inactivated whole blood, 20 hr ([2]; 20 hr, Unit 1, 1 bag kit, no transfer, 22° C.): 1.99 nM
- Residual amustaline levels in pathogen-inactivated whole blood, 22 hr ([2]; 22 hr (third container from 18 hr), Units 2-3, 3 bag kit, 2x transfer, PVC1 transfer bags, 22° C.): BLOQ (BLOQ = Below Limit of Quantitation (e.g., <0.75 nM))
- Residual amustaline levels in pathogen-inactivated whole blood, 22 hr ([2]; 22 hr (third container from 18 hr), Units 4-5, 3 bag kit, 2x transfer, PVC2 transfer bags, 22° C.): BLOQ (BLOQ = Below Limit of Quantitation (e.g., <0.75 nM))
- Residual amustaline levels in pathogen-inactivated whole blood, 22 hr ([2]; 22 hr (third container from 18 hr), Units 6-7, 3 bag kit, 2x transfer, EVA transfer bags, 22° C.): BLOQ (BLOQ = Below Limit of Quantitation (e.g., <0.75 nM))
- level of residual amustaline at 22 hr and 24 hr, 3-container kits ([2]; 22 hr and 24 hr (4 or 6 hours after bag transfer), all samples in 3-container kits, three container types): below the limit of quantitation
- Residual amustaline levels in pathogen-inactivated whole blood, 22 hr ([2]; 22 hr, Unit 1, 1 bag kit, no transfer, 22° C.): 1.46 nM
- Residual amustaline levels in pathogen-inactivated whole blood, 24 hr ([2]; 24 hr (third container from 18 hr), Units 2-3, 3 bag kit, 2x transfer, PVC1 transfer bags, 22° C.): BLOQ (BLOQ = Below Limit of Quantitation (e.g., <0.75 nM))
- Residual amustaline levels in pathogen-inactivated whole blood, 24 hr ([2]; 24 hr (third container from 18 hr), Units 4-5, 3 bag kit, 2x transfer, PVC2 transfer bags, 22° C.): BLOQ (BLOQ = Below Limit of Quantitation (e.g., <0.75 nM))
- Residual amustaline levels in pathogen-inactivated whole blood, 24 hr ([2]; 24 hr (third container from 18 hr), Units 6-7, 3 bag kit, 2x transfer, EVA transfer bags, 22° C.): BLOQ (BLOQ = Below Limit of Quantitation (e.g., <0.75 nM))
- Residual amustaline levels in pathogen-inactivated whole blood, 24 hr ([2]; 24 hr, Unit 1, 1 bag kit, no transfer, 22° C.): 1.54 nM
- Residual amustaline levels in pathogen-inactivated whole blood, 24 hr ([3]; 24 hr): BLOQ (BLOQ = Below Limit of Quantitation (e.g., <0.75 nM))
- Residual amustaline levels in pathogen-inactivated whole blood, 26 hr ([3]; 26 hr): BLOQ (BLOQ = Below Limit of Quantitation (e.g., <0.75 nM))
